# Values of other authors in US20160176819A1, “ASYMMETRICALLY CHARGED NIR FLUOROPHORES” (Washington University, priority 2014, published 2016).
# Several values for one entry are separate records, joined by “and”; a condition that tells them apart may be missing. Equal values may be shown once.
# Columns and labels:
# [1] = ICG in DMSO, literature values; cited from earlier work
# [2] = reference value; cited from earlier work
smiles,measurement,setting,value
"CC1(C)C(/C=C/C=C/C=C/C=C2\N(CCCCS(=O)(=O)O)c3ccc4ccccc4c3C2(C)C)=[N+](CCCCS(=O)(=O)[O-])c2ccc3ccccc3c21 [ICG, indocyanine green]",fluorescence quantum yield of the reference,[1],0.12 and 0.22
same,QY of the reference,[2],23%
